One assay deals with human GSK3 beta (Homo sapiens, UniProt P49841). Put plainly: GSK3β in vitro assay (33P-ATP phosphorylation of phospho GS2 peptide). It is filed as biochemical. As to conditions: In vitro potency on human GSK3 beta; read-out: IC50 (μM) GSK3beta. Here is the method: GSK3β Assay (see Bioorg. Med. Chem. Lett by Naerum et al. 12 p. 1525-1528 (2002))
In a final reaction volume of 25 μl, GSK3β (h) (5-10 mU) is incubated with 8 mM MOPS pH 7.0, 0.2 mM EDTA, 20 μM […](p)EDEEE (being the GSK3 substrate; a phospho GS2 peptide), 10 mM Mg Acetate and [γ-^33P-ATP] (Specific activity approx. 500 cpm/pmol, concentration as required). The reaction is initiated by the addition of Mg^2+ [γ-^33P-ATP]. After incubation for 40 minutes at room temperature, the reaction is stopped by the addition of 5 μl of a 3% phosphoric acid solution. 10 μl of the reaction is then spotted onto a P30 filtermat and washed three times for 5 minutes in 50 mM phosphoric acid and once in methanol prior to drying and the degree of phosphorylation of the substrate is determined by scintillation counting.

The subject of a further assay is db/db mice. Put plainly: Experimental model of type II diabetes (oral postprandial glycemia in db/db mice). It is filed as in vivo. The note with it: p.o. 50 mg/kg, compared to vehicle Group 1. Here is the method:
b) In vivo Assay: Experimental Model of Type II Diabetes (Oral Postprandial Glycemia in db/db Mice)
The following assay aims at determining the anti-diabetic effect of the test compounds of formula (I) in a model of postprandial glycemia in db/db mice, in vivo.
The assay was performed as follows:
A total of 24 db/db mice (about 8-9 weeks; obtained from IFFACREDO, l'Arbreste, France) were fasted during 20 hours.
2 groups, each consisting of 6 animals were formed: • Group 1: The animals were administered (per os) a dose of 10 mg/kg of vehicle. • Group 2: The animals were administered (per os) a dose of 50 mg/kg of the test compound according to formula (I).
After oral administration of the compounds of formula (I) solubilized or suspended in CarboxyMethylCellulose (0.5%), Tween 20 (0.25%) and water as vehicle, the animals had access to commercial food (D04, UAR, Villemoisson/Orge, France) ad libitum. The diabetic state of the mice was verified by determining the blood glucose level before drug administration. Blood glucose and serum insulin levels were then determined 4 hrs after drug administration.
The determination of the blood glucose level was performed using a glucometer (Precision Q.I.D., Medisense, Abbot, ref. 212.62.31). […]
Changes in blood glucose and serum insulin of drug treated mice were expressed as a percentage of control (group 1: vehicle treated mice).

Chain of human GSK3 beta (P49841 whole entry): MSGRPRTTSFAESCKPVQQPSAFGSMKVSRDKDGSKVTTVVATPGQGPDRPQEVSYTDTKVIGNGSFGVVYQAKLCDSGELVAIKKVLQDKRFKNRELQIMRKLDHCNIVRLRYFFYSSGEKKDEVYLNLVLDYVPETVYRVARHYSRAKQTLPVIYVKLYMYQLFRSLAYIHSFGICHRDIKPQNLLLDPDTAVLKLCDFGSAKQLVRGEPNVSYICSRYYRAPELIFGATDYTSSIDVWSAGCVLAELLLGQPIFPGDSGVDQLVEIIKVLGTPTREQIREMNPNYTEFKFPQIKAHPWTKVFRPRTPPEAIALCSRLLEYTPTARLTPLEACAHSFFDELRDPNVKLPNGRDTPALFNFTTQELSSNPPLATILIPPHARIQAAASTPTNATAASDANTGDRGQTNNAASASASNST

By IC50 is commonly meant the concentration that inhibits the measured activity by half. Consider `CN(C)CCCC(=O)Nc1nccc(/C(C#N)=C2/Nc3ccccc3O2)n1` [Example 89, N-{4-[1,3-benzoxazol-2(3H)-ylidene(cyano)methyl]-2-pyrimidinyl}-4-(dimethylamino)butanamide], for which the half-inhibitory concentration (IC50) at human GSK3 beta is less than 10 µM.
On the same count and under the same terms, as for `N#C/C(=C1\Nc2ccccc2O1)c1ccnc(NCc2cccnc2)n1` [Example 41, 1,3-benzoxazol-2(3H)-ylidene{2-[(pyridin-3-ylmethyl)amino]pyrimidin-4-yl}acetonitrile], the figure is less than 10 µM.
As to `N#C/C(=C1\Nc2ccccc2O1)c1ccnc(NCCCN2CCCC2=O)n1` [Example 5, 1,3-benzoxazol-2(3H)-ylidene(2-{[3-(2-oxopyrrolidin-1-yl)propyl]amino}pyrimidin-4-yl)acetonitrile], the “blood glucose level reduced (percentage of vehicle control)” value with db/db mice (4 hrs after drug administration, food intake after 20 h fasting) is “about 25%”. Also, in the assay with db/db mice (serum insulin 4 hrs after drug administration), the “insulin level reduced (percentage of vehicle control)” value was “about 11%”.
Regarding `CCN1CCN(c2cc(/C(C#N)=C3/Nc4ccccc4O3)ncn2)CC1` [Example 49, 1,3-benzoxazol-2(3H)-ylidene[6-(4-ethylpiperazin-1-yl)pyrimidin-4-yl]acetonitrile], the IC50 on human GSK3 beta was less than 10 µM.
On the same count and under the same terms, as for `CC(=O)N1CCN(C(=O)CCCNc2nccc(/C(C#N)=C3\Nc4ccccc4O3)n2)CC1` [Example 70, (2-{[4-(4-acetyl-1-piperazinyl)-4-oxobutyl]amino}-4-pyrimidinyl)(1,3-benzoxazol-2(3H)-ylidene)ethanenitrile], the figure is less than 10 µM; as for `N#C/C(=C1\Nc2ccccc2O1)c1ccnc(NC2CC2)n1` [Example 10, 1,3-benzoxazol-2(3H)-ylidene[2-(cyclopropylamino)pyrimidin-4-yl]acetonitrile], less than 10 µM; as for `Cc1cc(/C(C#N)=C2/Nc3ccccc3O2)nc(NCCCn2cncn2)n1` [Example 47], less than 10 µM.
On to `CC(C)OCCCNc1nccc(/C(C#N)=C2/Nc3ccccc3O2)n1` [Example 42, 1,3-benzoxazol-2(3H)-ylidene{2-[(3-isopropoxypropyl)amino]pyrimidin-4-yl}acetonitrile], for which the IC50 at human GSK3 beta is less than 10 µM.

(Values after patent US20070185104A1, “Benzoxazole acetonitriles” (APPLIED RESEARCH SYSTEMS ARS HOLDING N.V., priority 2003, published 2007).)
